Laboratory results as given in patent publication US20070098826A1, “Use of pinitol or chiroinositol for protecting the liver” (AMICOGEN, INC., priority 2003, published 2007).

Legend:
[1] = system: serum GOT, GPT and γ-GTP levels; test: Protective activity for liver in adults with elevated serum GOT or γ-GTP (serum GOT, GPT, γ-GTP); assay type: in vivo, human; conditions: oral 600 mg daily for 2 months
Experimental: Pinitol was orally administered to adults (the average age: 51.8 years, man 7 and female 8) showing serum GOT or γ-GPT level higher than 50 IU/L at a daily dose of 600 mg for 2 months. Serum GOT, GPT and γ-GTP levels were determined before and after the administration.

[2] = system: SOD activity in liver; test: Determination of SOD activity in liver of carbon tetrachloride treated rats; assay type: in vivo, Sprague-Dawley rats; conditions: for SOD activity (U/g Liver): CCl4 i.p., liver 24 hours later; for SOD activity Relative Value (%): control group = 100
Experimental: The rats were divided into 7 groups and pinitol dissolved in 10 ml of water was orally administered to the rats of the experimental groups in an amount of 200-1000 mg/kg of rat body weight everyday for 4 days. The comparative group rats were treated with Silymarin (Sigma Chemical Co.) in an amount of 200 mg/kg, the normal and control groups were each treated with 10 ml of distilled water. On day 4, a mixture of carbon tetrachloride and soybean oil (1:1 (v/v)) was injected intraperitoneally into the rats except the rats of the normal group in an amount of 0.5 ml/kg, 90 minutes after the administration of pinitol. 24 hours thereafter, SOD activity of the liver taken out from each rat was measured according to the method of Neoot et al., (Methods Enzymol., 186: 209-219 (1993)) and tested by student t-test.

[3] = system: glutathione content of liver; test: Content of glutathione in liver of streptozotocin diabetic rats; assay type: in vivo, Sprague-Dawley rats; conditions: for Glutathione content as compared to the normal group / Glutathione content Relative value: 10 mg/kg; for Glutathione content (μ mole/g): 10 mg/kg oral everyday for 4 days, liver; for Glutathione content Relative value: normal group = 100
Experimental: In order to induce diabetes in rats, streptozotocin (Sigma Chemical Co., USA) dissolved in 0.01M citrate buffer solution (pH 4.5) was injected into the abdominal cavity of 8 week-old Sprague-Dawley rats in an amount of 45 mg/kg of rat body weight. […] The diabetic rats were divided into 3 groups, each of 12-15 rats, and pinitol or chiroinositol dissolved in 10 ml of water was orally administered to the rats of two groups (experimental groups 1 and 2) in an amount of 10 mg/kg of rat body weight everyday for 4 days. Rats of the normal group and control group (diabetic group) were each treated with 10 ml of distilled water. After fasting during 18 hours, the rats were anesthetized with ethyl ether, sacrificed, the liver was taken and washed with cold physiological saline. The glutathione content of the homogenized liver solution was measured according to the method of Ellman (Arch. Biochem. Biophy., 70-77 (1959)) and the result is shown in Table IV.

[4] = rats, oral, 5,000 mg/kg, day 14
Experimental: 6 week-old, specific pathogen-free Sprague-Dawley female rats (15 heads), each weighing about 130 to 147 g, and male rats (15 heads), each weighing about 110 to 123 g, were bred under the condition of 23±3° C., 55±15% relative humidity and 12 L/12 D photoperiod. Fodder (Harlan, U.S.A.) and water were sterilized and fed to the rats. The rats were acclimated for 1 week before the administration of pinitol.
Pinitol was dissolved in physiological saline and the solution was orally administered to each rat in an amount of 5,000 mg/kg of rat body weight. […] The weight changes of the rats were recorded at day 1, 3, 7 and 14 to examine the effect of pinitol. Further, on day 14, the rats were sacrificed and the internal organs were visually examined.

[5] = system: Liver Damaged by Carbon Tetrachloride; test: Protective activity for the liver damaged by carbon tetrachloride (blood GOT and GPT); assay type: in vivo, Sprague-Dawley rats; conditions: CCl4 rats; for GOT / GPT: blood on day 8; for GOT Inhibition (%) / GPT Inhibition (%): day 8
Experimental: The rats were divided into 8 groups and carbon tetrachloride was injected subcutaneously into the rats except the rats of the normal group in an amount of 0.5 ml/kg at 1st and 5th day. On day 2, pinitol or chiroinositol dissolved in 10 ml of water was orally administered to the rats of the experimental groups in an amount of 5-20 mg/kg of rat body weight. The normal and control groups were treated with 10 ml of distilled water instead of pinitol. On day 8, GOT and GPT concentrations in the blood sample taken from the orbital vein of each rat was measured by using blood analyzer (Vitros DT-60, Johnson & Johnson) and the result is shown in Table II. The degree of inhibition (%) was then calculated in accordance with the following equation: [formula]

Structure (SMILES) | Glutathione content as compared to the normal group [3] | Glutathione content (μ mole/g) [3] | Glutathione content Relative value [3] | GOT ([5]; 5 mg/kg oral) | GPT ([5]; 5 mg/kg oral) | GOT Inhibition (%) ([5]; 5 mg/kg oral) | GPT Inhibition (%) ([5]; 5 mg/kg oral) | GOT ([5]; 10 mg/kg oral) | GPT ([5]; 10 mg/kg oral) | GOT Inhibition (%) ([5]; 10 mg/kg oral) | GPT Inhibition (%) ([5]; 10 mg/kg oral) | GOT ([5]; 20 mg/kg oral) | GPT ([5]; 20 mg/kg oral) | GOT Inhibition (%) ([5]; 20 mg/kg oral) | GPT Inhibition (%) ([5]; 20 mg/kg oral) | also measured
CO[C@H]1[C@H](O)[C@@H](O)[C@@H](O)[C@H](O)[C@@H]1O [Pinitol, pinitol] | 96% | 16.38 ± 2.43 μ mole/g | 95.8 | 298 ± 28 IU/L | 134 ± 7 IU/L | 49.7% | 54.6% | 188 ± 22 IU/L | 92 ± 5 IU/L | 73.4% | 72.9% | 192 ± 17 IU/L | 75 ± 4 IU/L | 72.6% | 80.3% | Serum GOT After administration [1]: 31.4 ± 3.0 IU/L; Serum GPT After administration [1]: 43.2 ± 8.1 IU/L; Serum γ-GTP After administration [1]: 82.6 ± 17.5 IU/L; Serum GOT Degree of decrease (%) ([1]; vs before administration): 45.3%; Serum GPT Degree of decrease (%) ([1]; vs before administration): 51.8%; Serum γ-GTP Degree of decrease (%) ([1]; vs before administration): 41.1%; SOD activity lower than that of the control group by ([2]; 200 mg/kg): 7%; SOD activity (U/g Liver) ([2]; 200 mg/kg oral everyday for 4 days): 217 ± 74 U/g Liver; SOD activity Relative Value (%) ([2]; 200 mg/kg): 93%; SOD activity higher than that of the control group by ([2]; 300 mg/kg): 24%; SOD activity (U/g Liver) ([2]; 300 mg/kg oral everyday for 4 days): 289 ± 45 U/g Liver; SOD activity Relative Value (%) ([2]; 300 mg/kg): 124%; Effect on SOD activity in the liver ([2]; 300 mg/kg, p<0.05): raises SOD activity in the liver; SOD activity higher than that of the control group by ([2]; 500 mg/kg): 44%; SOD activity (U/g Liver) ([2]; 500 mg/kg oral everyday for 4 days): 335 ± 52 U/g Liver; SOD activity Relative Value (%) ([2]; 500 mg/kg): 144%; SOD activity higher than that of the control group by ([2]; 1000 mg/kg): 35%; SOD activity (U/g Liver) ([2]; 1000 mg/kg oral everyday for 4 days): 315 ± 38 U/g Liver; SOD activity Relative Value (%) ([2]; 1000 mg/kg): 135%; Autopsy, pathological abnormality of internal organs [4]: did not develop any pathological abnormality
OC1C(O)C(O)C(O)C(O)C1O (centres unmarked) [chiroinositol] | 85% | 14.52 ± 0.57 μ mole/g | 85.0 | 321 ± 35 IU/L | 156 ± 12 IU/L | 44.0% | 45.0% | 205 ± 28 IU/L | 80 ± 9 IU/L | 69.4% | 78.2% | 174 ± 26 IU/L | 88 ± 7 IU/L | 76.1% | 74.7% | –
